Assay results reported in publication PMC11840605, “Crystallographic and Thermodynamic Evidence of Negative Coupling in the Flavin-Dependent Tryptophan Halogenases AbeH and BorH” (ACS Omega, 2025).

What was measured:
AbeH/Trp = AbeH/Trp (uncultured bacterium, UniProt F6LWA5); assay: FAD fluorescence quenching titration with AbeH preincubated with Trp; format: binding, uncultured soil actinomycetes
Method: Quenching of FAD fluorescence quenching upon binding to AbeH was measured in the absence and presence of Trp in 20 mM Tris-HCl pH 8.0 and 100 mM NaCl using a Quantmaster 40 fluorimeter (Photon Technologies International). Trp and FAD solutions were prepared in 20 mM Tris-HCl pH 8, and concentrations were determined by absorbance at 280 and 450 nm, respectively. FAD fluorescence was measured using excitation at 450 nm (4 nm slit opening) and emission set at 525 nm (6 nm slit opening) using a fluorescence cuvette to collect 50 scans, which were averaged later during data processing in Microsoft Excel. […] Raw fluorescence intensities were corrected for the buffer, Trp, and AbeH background contributions. Quenched fluorescence intensity was plotted vs AbeH concentration and fit to eq 1 using GraphPad Prism 8.0 by nonlinear regression analysis. In eq 1, F = fractional saturation, ΔF = fluorescence quenching upon AbeH/FAD complex formation (calculated from the difference of FAD fluorescence intensity at different AbeH concentration), ΔFmax = maximum fluorescence change obtained from fit, [AbeHFAD] = FAD-bound AbeH, [AbeH]T = Total AbeH concentration, [FAD]T = Total FAD concentration, KD = equilibrium dissociation constant. […]
A. Fluorescence quenching observed from binding of Apo-AbeH ([…]) to […] FAD; […]

AbeH = AbeH (uncultured bacterium, UniProt F6LWA5); assay: In vitro halogenation of Trp by AbeH, 1 h reaction, RP-HPLC/MS; format: biochemical, uncultured soil actinomycetes
Chain of AbeH (F6LWA5 entry or part of it): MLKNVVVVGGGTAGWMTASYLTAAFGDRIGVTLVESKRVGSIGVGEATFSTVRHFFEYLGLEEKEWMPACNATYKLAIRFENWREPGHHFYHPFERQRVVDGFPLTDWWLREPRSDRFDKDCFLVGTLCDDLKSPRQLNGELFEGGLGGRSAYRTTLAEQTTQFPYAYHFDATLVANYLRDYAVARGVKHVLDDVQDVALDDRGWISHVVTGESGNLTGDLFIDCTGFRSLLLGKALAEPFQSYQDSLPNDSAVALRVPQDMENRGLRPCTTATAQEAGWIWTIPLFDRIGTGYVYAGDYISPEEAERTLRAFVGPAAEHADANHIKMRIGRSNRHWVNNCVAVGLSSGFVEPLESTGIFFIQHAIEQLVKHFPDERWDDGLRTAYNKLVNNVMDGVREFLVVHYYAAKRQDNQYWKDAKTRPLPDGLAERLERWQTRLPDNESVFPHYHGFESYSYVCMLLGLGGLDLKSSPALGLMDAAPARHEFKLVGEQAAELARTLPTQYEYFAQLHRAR
Method: In vitro halogenation reactions contained 7 μM AbeH, 13 μM holo-AbeF (∼20% saturated with FAD), 2.5 mM NADH, 0.5 mM Trp, 50 mM NaCl or NaBr in 10 mM Tris-HCl pH 8.2 in a final volume of 100 μL. Reactions were initiated by addition of NADH and incubated with 200 rpm shaking at 37 °C for 1 h. Reactions were stopped by heating to 95 °C for 10 min followed by centrifugation at 10,000g for 5 min. Reaction mixtures were analyzed by RP-HPLC using a Kromasil C18 RP-analytical column (100 Å pore size, 4.6 × 250 mm) mounted on a Waters 2695 HPLC. Separation used a 14 min gradient from 5% B to 100% B (Solvent A = H2O/CH3CN 95:5, 0.1% TFA; Solvent B = H2O/CH3CN 5/95, 0.1% TFA) with flow rate 0.6 mL/min. Trp, 5-Cl-Trp, and 5-Br-Trp peaks were monitored with absorbance at 280 nm and retention times and yields were analyzed with using retention times and peak areas from standard curves of authentic standards of Trp (ACROS Organics), 5-Cl-Trp (Santa Cruz Biotechnology) and 5-Br-Trp (Santa Cruz Biotechnology). RP-HPLC purified 5-Cl-Trp and 5-Br-Trp peaks from in vitro halogenation reactions were analyzed on a Waters SYNAPT HDMS mass spectrometer using positive ion-mode ESI-MS with leucine enkephalin as internal standard.
Figure S2: AbeH chlorinates and brominates Trp in vitro.
In vitro halogenation reactions were performed with […], […], 2.5 mM NADH, 50 mM NaCl or NaBr in 10 mM Tris-HCl pH 8.2 at 37 °C shaking at 200 rpm with final volume of […]. Standards and reactions were analyzed on a Kromasil C18 column (100 Å pore size, 4.6 x 250 mm) mounted on a Waters HPLC using a 14 min gradient from 5% -100% B (Solvent A:5% CH3CN+0.1% TFA; Solvent B:95% CH3CN+0.1% TFA) with flow rate 0.6 mL/min using 90 µL injections. Baseline subtracted peak integration was performed on Empower software (Waters). (A) Trp standard (tR = 10.3 min). (B) 5-Cl-Trp standard (tR =11.3 min). (C) 5-Br-Trp standard (tR = 11.4 min). (D) 60 min AbeH in vitro chlorination reaction of 0.5 mM Trp (tR = 11.3 min, 100% conversion to 5-Cl-Trp). […]

Chain of AbeH/Trp (F6LWA5 entry or part of it): as above

Structure (SMILES): Cc1cc2nc3c(=O)[nH]c(=O)nc-3n(C[C@H](O)[C@H](O)[C@H](O)COP(=O)(O)OP(=O)(O)OC[C@H]3O[C@@H](n4cnc5c(N)ncnc54)[C@H](O)[C@@H]3O)c2cc1C [FAD]
- Kd (AbeH/Trp; AbeH/FAD KD, FAD fluorescence quenching (Figure S10 B), in the presence of 0.3 mM Trp): 3.1 µM
- Kd (AbeH/Trp; KD, FAD binding to AbeH/Trp, FAD fluorescence, AbeH preincubated with Trp): 7.7 ± 2.2 µM

Structure (SMILES): N[C@@H](Cc1c[nH]c2ccccc12)C(=O)O [Tryptophan, L-tryptophan]
- Conversion to 5-Br-Trp (AbeH; 60 min AbeH bromination reaction of 0.5 mM Trp, 50 mM NaBr): ~ 80%
- Conversion to 5-Cl-Trp (AbeH; 60 min AbeH chlorination reaction of 0.5 mM Trp, 50 mM NaCl): 100%
- Product formation by AbeH when NaCl was replaced with NaI (AbeH; NaI): No product peak was observed
